Assay results published in paper PMC11939470, “The Cyclic Antimicrobial Peptide C-LR18 Has Enhanced Antibacterial Activity, Improved Stability, and a Longer Half-Life Compared to the Original Peptide” (Antibiotics, 2025).
Where a SMILES comes first, the peptide text is derived from it. Bridges are numbered along the chain shown (N, C = ends).

Key:
[1] = tested on: Gram-negative bacteria; test: Geometric mean MIC (MBC) and therapeutic index; type: cell-based; conditions: average MIC against the tested Gram-negative strains
Protocol: (§1) The MIC test was performed using the method recommended by the National Committee for Clinical Laboratory Standards (NCCLS) Standards and Guidelines, and the method was modified according to the characteristics of antimicrobial peptides. The bacteria were cultured at 37 °C for 16 h, and the microbial suspension was diluted to a final concentration of 5 × 10^5 CFU/mL. Then, 50 µL of bacterial solution was mixed with 50 µL of MHB containing different concentrations peptides (0.5–256 µM) in a 96-well plate. […] The assays were performed three times. Geometric mean MIC represents the average MIC of the peptide against all the tested strains.
MBC detection was performed according to the method of Taiyari et al.. According to the MIC results, 50 µL of bacterial cultures was absorbed from the minimum inhibitory concentration hole and the three previous holes, respectively; transferred to a new MH solid medium; and incubated in an incubator at 37 °C overnight, and the bacteria on the plate were counted. The concentration of antibacterial peptide that kills 99.99% of the tested bacteria is defined as the minimum bactericidal concentration (MBC) of the peptide. The experiment was repeated three times. Geometric mean MBC represents the average […] of the peptide against all the tested strains.

[2] = tested on: rabbit red blood cells; test: Hemolysis activity determination; type: cell-based; conditions: 2% rabbit red blood cells in PBS pH 7.4, 37 °C 1 h, OD 570 nm, repeated three times
Protocol: Briefly, the collected rabbit red blood cells [purchased from Oumarsi (Shanghai, China) Biotechnology Co., Ltd.] were washed three times with PBS (pH 7.4) and diluted to 2% (v/v). A total of 100 µL of rabbit red blood cells suspension were mixed with 100 µL of PBS (pH 7.4) containing different concentrations of peptides (1–256 µM) in a 96-well plate. The positive control was a mixture of 100 µL of red blood cell suspension and 100 µL of 0.2% TritonX-100 solution, and the negative control was a mixture of 100 µL of red blood cell suspension and 100 µL of PBS solution. The mixtures were incubated at 37 °C for 1 h, then centrifuged at 1000× g for 10 min. The OD value at 570 nm of the supernatant was measured using a microplate reader (TECAN GENios F129004, Tecan, Salzburg, Austria). The hemolytic index was calculated according to the following formula:Hemolytic index % = (OD peptide − ODPBS)/(ODT ritonX-100 − ODPBS) × 100%(2)
The concentration of the antimicrobial peptide causing 10% erythrocyte hemolysis was defined as the minimum hemolytic concentration of the antimicrobial peptide on rabbit red blood cells. The experiment was repeated three times.

[3] = tested on: genomic DNA of E. coli ATCC25922; test: DNA binding assay (gel retardation); conditions: 100 ng genomic DNA, 1–512 µM peptide, 37 °C 60 min, 0.8% agarose gel
Protocol: The DNA binding test was performed according to gel retardation experiments described previously. Firstly, genomic DNA was extracted from E. coli ATCC25922 using a DNA extraction kit. A total of 100 ng of genomic DNA was mixed with 1–512 µM peptide in a binding buffer (50 µg/mL of BSA, 1 mM of ethylene diamine tetra-acetic acid, 20 mM of KCl, 10 mM of Tris-HCl (pH = 8.0), 5% glycerol, and 1 mM of dithiothreitol) and incubated at 37 °C for 60 min. Subsequently, the samples were examined using 0.8% agarose gel electrophoresis. Observation and photography were performed in the UVP gel imaging system, and the electrophoresis mobility was analyzed.

[4] = tested on: E. coli ATCC25922; test: Stability in artificial gastric and intestinal fluid, read out by MIC assay; type: in vitro ADME
Protocol: as §1
(§2) The stability of LR18 and C-LR18 in protease, serum, and gastrointestinal conditions was determined using MIC assay, as described previously.
The stability in gastrointestinal conditions was also determined. The peptides were diluted in artificial gastric fluid and artificial intestinal fluid, digested in water bath at 37 °C for 0.5 and 1 h, and then inactivated in water bath at 60 °C for 30 min. Then, the PH of the solution was adjusted to 7.0 with 10% Na2CO3. Subsequent steps were the same as for the MIC assay. The assays were performed three times.

[5] = tested on: E. coli ATCC25922; test: Stability in serum, read out by MIC assay; type: in vitro ADME
Protocol: as §1, §2
To detect the stability of peptides in serum, the peptides were mixed with various concentrations of fetal bovine serum and mouse serum solutions, and the final concentrations of serum were 6.25%, 12.5%, 25%, and 50%. The MIC of peptides against E. coli ATCC25922 in the presence of different concentrations of serum was determined. Subsequent steps were the same as for the MIC assay. The assays were performed three times.

[6] = tested on: E. coli Y1; test: Therapeutic experiment, survival of E. coli-infected mice; type: in vivo, KM mice; conditions: within 72 h, 10 mice per group
Protocol: The mice (female, 18–21 g) were randomly divided into 6 groups, with PBS dilution as the control group. A total of 1–5 groups were injected intraperitoneally with 0.5 mL of E. coli solution containing […] CFU/mL, respectively. After inoculation, the mice were observed continuously for 5 days, and the mortality rate was recorded. The minimum dose (LD 100) at which all mice die within 5 days was used as the optimal dose for the bacterial attack in this experiment.
In order to further evaluate the therapeutic potential of antimicrobial peptide C-LR18, a mouse model infected with E. coli was constructed in this study. The Km mice (female, 18–21 g) were maintained at constant room temperature [(25 ± 2) °C] with free access to food and water for 48 h. […] A total of 0.5 mL of E. coli Y1 suspension (10^9 CFU/m L) was intraperitoneally injected into each group of mice. One hour after challenge, different doses of C-LR18 (2.5 mg/kg, 5 mg/kg, and 7.5 mg/kg) and polymyxin B (5 mg/kg) were intraperitoneally injected into mice. The group injected with the same dose of physiological water was the control group.

CC(C)C[C@@H]1NC(=O)[C@H](CCCNC(=N)N)NC(=O)[C@H](CCCNC(=N)N)NC(=O)[C@H](CC(C)C)NC(=O)[C@H](CC(C)C)NC(=O)[C@H](CCCNC(=N)N)NC(=O)[C@H](CC(C)C)NC(=O)[C@@H]2CCCN2C(=O)[C@H](CCCNC(=N)N)NC(=O)[C@H](CCCNC(=N)N)NC(=O)[C@@H]2CCCN2C(=O)[C@H](CC(C)C)NC(=O)[C@H](CCCNC(=N)N)NC(=O)[C@H](CC(C)C)NC(=O)[C@H](CC(C)C)NC(=O)[C@H](CCCNC(=N)N)NC(=O)[C@H](CCCNC(=N)N)NC(=O)[C@H](CC(C)C)NC(=O)[C@@H](N)CSSC[C@@H](C(=O)O)NC1=O [C-LR18] (H-CLRRLLRLPRRPLRLLRRLC-OH; disulfide 1-20; N-terminus and C-terminus assumed)
Geometric mean MIC [1]: 2 µM | MHC10 (lowest concentration inducing 10% hemolysis) [2]: 128 µM | concentration exhibiting DNA-binding ability [3]: 64 µM | increase of MIC ([4]; artificial gastric fluid 30 min): 8 times | increase of MIC ([4]; artificial intestinal fluid 30 min): 4 times | increase of MIC ([4]; artificial intestinal fluid 60 min): 16 times | increase of MIC ([5]; 50% serum or artificial gut solution for 30 min (abstract)): 4 fold | increase of MIC ([5]; serum concentration 50%): 4 times | survival rate of mice ([6]; 2.5 mg/kg ip 1 h after ip 0.5 mL E. coli Y1 10^9 CFU/mL): 20% | survival rate of mice ([6]; 5 mg/kg ip 1 h after ip 0.5 mL E. coli Y1 10^9 CFU/mL): 40% | survival rate of mice ([6]; 7.5 mg/kg ip 1 h after ip 0.5 mL E. coli Y1 10^9 CFU/mL): 60%
